Experimental data published in PMC12154458, “High-Throughput Screens of Repurposing Hub and DOS Chemical Libraries Reveal Compounds with Novel and Potent Inhibitory Activity Against the Essential Non-Neuronal Acetylcholinesterase of Schistosoma mansoni (SmTAChE)” (International Journal of Molecular Sciences, 2025).

Key:
rSmTAChE [1] = target: T1, rSmTAChE (Schistosoma mansoni, UniProt A0A3Q0KMM5); assay: biochemical
rSmTAChE [2] = target: T1, rSmTAChE; assay type: biochemical; conditions: for IC50: read-out: qAC50 (IC50), rSmTAChE
[3] = target: recombinant human acetylcholinesterase, rHsAChE (Homo sapiens, UniProt P22303); assay: biochemical; conditions: for IC50: read-out: qAC50 (IC50), rHsAChE
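Throughout, for Inhibition (%) (Average): mostly 20 µM final but a few compounds at 5 or 10 µM.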
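Throughout, for Inhibition (%) Replicate A: mostly 20 µM final but a few compounds at 5 or 10 µM.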
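Throughout, for Inhibition (%) Replicate B: mostly 20 µM final but a few compounds at 5 or 10 µM.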

T1 sequence (A0A3Q0KMM5 27-661 limits assumed): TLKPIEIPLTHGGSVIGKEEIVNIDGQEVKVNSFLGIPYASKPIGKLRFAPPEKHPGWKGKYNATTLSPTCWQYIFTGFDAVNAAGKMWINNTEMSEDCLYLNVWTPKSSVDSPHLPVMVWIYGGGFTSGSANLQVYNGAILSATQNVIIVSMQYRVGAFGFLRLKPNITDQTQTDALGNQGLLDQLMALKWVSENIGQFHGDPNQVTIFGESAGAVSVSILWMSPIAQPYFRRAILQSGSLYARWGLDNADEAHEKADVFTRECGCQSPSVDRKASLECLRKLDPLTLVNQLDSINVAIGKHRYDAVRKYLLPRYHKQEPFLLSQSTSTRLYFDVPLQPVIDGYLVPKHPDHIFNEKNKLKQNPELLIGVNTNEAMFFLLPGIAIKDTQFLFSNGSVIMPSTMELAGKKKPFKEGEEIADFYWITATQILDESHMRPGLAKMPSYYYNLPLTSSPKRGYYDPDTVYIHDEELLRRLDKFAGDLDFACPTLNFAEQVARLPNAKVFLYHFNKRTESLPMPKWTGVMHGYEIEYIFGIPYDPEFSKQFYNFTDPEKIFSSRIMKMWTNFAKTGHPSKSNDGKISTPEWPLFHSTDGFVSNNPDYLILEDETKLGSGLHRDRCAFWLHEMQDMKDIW
Sequence of recombinant human acetylcholinesterase, rHsAChE (P22303 32-614): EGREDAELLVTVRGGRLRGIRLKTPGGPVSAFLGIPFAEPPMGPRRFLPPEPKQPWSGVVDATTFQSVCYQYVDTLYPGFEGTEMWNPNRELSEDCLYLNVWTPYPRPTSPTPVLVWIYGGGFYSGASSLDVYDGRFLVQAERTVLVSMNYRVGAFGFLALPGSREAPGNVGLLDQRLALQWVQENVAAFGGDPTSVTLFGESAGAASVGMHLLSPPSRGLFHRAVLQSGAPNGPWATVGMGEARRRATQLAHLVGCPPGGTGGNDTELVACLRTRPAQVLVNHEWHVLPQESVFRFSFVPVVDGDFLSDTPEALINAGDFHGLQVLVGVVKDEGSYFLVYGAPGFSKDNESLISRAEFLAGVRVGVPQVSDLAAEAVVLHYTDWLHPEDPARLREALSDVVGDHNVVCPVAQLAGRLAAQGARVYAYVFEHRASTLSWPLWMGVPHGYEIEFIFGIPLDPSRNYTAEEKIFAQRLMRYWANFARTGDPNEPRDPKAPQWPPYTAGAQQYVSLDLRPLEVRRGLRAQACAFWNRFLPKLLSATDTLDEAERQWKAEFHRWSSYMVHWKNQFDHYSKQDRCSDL

Row | Structure (SMILES) | Inhibition (%) (Average) (rSmTAChE [1]) | Inhibition (%) Replicate A (rSmTAChE [1]) | Inhibition (%) Replicate B (rSmTAChE [1]) | Data Mode (curve class), rSmTAChE (rSmTAChE [2]) | Data Mode (curve class), rHsAChE [3] | rSmTAChE Data Mode (rSmTAChE [2]) | rHsAChE Data Mode [3] | IC50 (rSmTAChE [2]) | IC50 [3]
1 | O=C(NCCCCN1CCN(c2cccc(Cl)c2Cl)CC1)c1ccc2c(c1)Cc1ccccc1-2 [BRD-K05181084-003-04-5] | 62.08% | 63.93% | 60.23% | inactive | inactive | – | – | – | –
2 | COc1ccc(NC(=O)Nc2ccc3c(c2)[C@@H]2C[C@H](CC(=O)NCc4ccccc4F)O[C@@H](CO)[C@@H]2O3)cc1 [BRD-K05329107-001-01-3] | 62.78% | 63.88% | 61.69% | – | – | inactive | decreasing (weakly active) | – | –
3 | COC(=O)N[C@H](C(=O)N1CC2(CC2)C[C@H]1c1ncc(-c2ccc3c(c2)C(F)(F)c2cc(-c4ccc5nc([C@@H]6[C@H]7CC[C@H](C7)N6C(=O)[C@@H](NC(=O)OC)C(C)C)[nH]c5c4)ccc2-3)[nH]1)C(C)C [BRD-K05446112-001-01-8] | 66.27% | 67.15% | 65.39% | decreasing (weakly active) | inactive | – | – | > 38 µM | –
4 | CCCCc1oc2ccc(NS(C)(=O)=O)cc2c1C(=O)c1ccc(OCCCN(CCCC)CCCC)cc1 [BRD-K05524748-003-04-4] | 75.77% | 74.52% | 77.02% | decreasing (weakly active) | decreasing (weakly active) | – | – | > 38 µM | > 38 µM
5 | COC(=O)/C=C/c1cccc(N(Cc2ccc(-c3ccc(N(C)C)cc3)cc2)C(=O)C2CCCCC2)c1 [BRD-K08864679-001-02-2] | 67.27% | 71.08% | 63.46% | inactive | inactive | – | – | – | –
6 | COc1ccc(C#Cc2ccc3c(c2)O[C@@H](CN(C)S(=O)(=O)c2ccccc2F)[C@@H](C)CN([C@@H](C)CO)S3(=O)=O)cc1 [BRD-K10241968-001-01-1] | 63.03% | 63.23% | 62.84% | – | – | inactive | inactive | – | –
7 | Cc1c(C(=O)NN2CCCCC2)nn(-c2ccc(Cl)cc2Cl)c1-c1ccc(Cl)cc1 [BRD-K13296708-001-05-8] | 75.13% | 74.54% | 75.71% | decreasing (weakly active) | inactive | – | – | > 38 µM | –
8 | CC(=O)c1cc([N+](=O)[O-])c(Sc2cccc(Cl)c2Cl)s1 [BRD-K13606314-001-01-3] | 73.95% | 72.57% | 75.33% | inactive | decreasing (weakly active) | – | – | – | > 38 µM
9 | COc1ccc(C#Cc2ccc3c(c2)O[C@H](CN(C)S(=O)(=O)c2ccccc2F)[C@H](C)CN([C@H](C)CO)S3(=O)=O)cc1 [BRD-K13781734-001-02-4] | 66.73% | 61.49% | 71.97% | – | – | decreasing (weakly active) | inactive | – | –
10 | COc1ccc(C#Cc2ccc3c(c2)O[C@H](CN(C)S(=O)(=O)c2ccccc2F)[C@@H](C)CN([C@@H](C)CO)S3(=O)=O)cc1 [BRD-K14241686-001-01-8] | 69.92% | 70.53% | 69.31% | – | – | decreasing (weakly active) | inactive | – | –
11 | O=C(C[C@@H]1C[C@@H]2c3cc(NC(=O)NC4CCCC4)ccc3O[C@@H]2[C@H](CO)O1)NCc1ccccc1F [BRD-K14652476-001-01-0] | 84.81% | 85.09% | 84.52% | – | – | inactive | inactive | – | –
12 | CSc1cc2c(cc1C(F)(F)F)N(C(=O)Nc1cccnc1)CC2 [BRD-K14807180-001-02-5] | 86.29% | 87.94% | 84.63% | inactive | inactive | – | – | – | –
13 | Cc1cc(SCc2sc(-c3ccc(C(F)(F)F)cc3)nc2C)ccc1OCC(=O)O [BRD-K14880289-001-03-0] | 75.45% | 71.99% | 78.91% | decreasing | decreasing | – | – | 16.4 µM | 10.5 µM
14 | COc1ccc(NC(=O)Nc2ccc3c(c2)[C@@H]2C[C@H](CC(=O)NCC4CC4)O[C@@H](CO)[C@@H]2O3)cc1 [BRD-K17285234-001-01-9] | 89.37% | 90.41% | 88.34% | – | – | decreasing (weakly active) | inactive | – | –
15 | CCCCc1oc2ccccc2c1C(=O)c1cc(I)c(OCCN(CC)CC)c(I)c1 [BRD-K17561142-003-35-8] | 69.46% | 66.24% | 72.67% | decreasing (weakly active) | decreasing (weakly active) | – | – | > 38 µM | > 38 µM
16 | C[C@H](NC(=O)C[C@H]1C[C@H]2c3cc(NC(=O)Nc4ccc(C(F)(F)F)cc4)ccc3O[C@H]2[C@H](CO)O1)c1ccccc1 [BRD-K17686770-001-01-8] | 68.45% | 70.27% | 66.63% | – | – | decreasing (weakly active) | inactive | – | –
17 | O=C(C[C@H]1C[C@H]2c3cc(NC(=O)Nc4ccc(C(F)(F)F)cc4)ccc3O[C@H]2[C@@H](CO)O1)NC1CCCCC1 [BRD-K18925241-001-01-0] | 70.28% | 62.39% | 78.17% | – | – | decreasing (weakly active) | inactive | – | –
18 | CC(C)(C)[S@@+]([O-])N1Cc2cc(C(=O)N3CCCCC3)nc(-c3cccc(-c4ccccc4F)c3)c2[C@H]1CCO [BRD-K19167425-001-01-6] | 62.31% | 62.60% | 62.02% | – | – | decreasing (weakly active) | inactive | – | –
19 | CCCC[C@@H](CC)COC(=O)/C=C/c1ccc(OC)cc1 [BRD-K19972289-001-01-4] | 64.81% | 66.96% | 62.66% | inactive | decreasing | – | – | – | 25.7 µM
20 | CC(C)(C#N)c1ccc(N2C(=O)OCc3cnc4ccc(-c5cnc6ccccc6c5)cc4c32)cc1 [BRD-K24556407-001-02-3] | 72.65% | 73.71% | 71.58% | inactive | inactive | – | – | – | –
